Structures can show the parent of a compound that is named as a salt.

T1 sequence (P03951 388-625 limits assumed): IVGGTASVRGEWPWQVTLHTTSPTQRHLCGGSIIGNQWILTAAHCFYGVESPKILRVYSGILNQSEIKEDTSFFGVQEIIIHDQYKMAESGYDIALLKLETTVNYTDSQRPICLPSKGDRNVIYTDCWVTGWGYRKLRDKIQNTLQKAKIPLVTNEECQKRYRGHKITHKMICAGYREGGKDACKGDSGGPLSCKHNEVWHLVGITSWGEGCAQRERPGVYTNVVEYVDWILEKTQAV
T1 sequence (P03951 19-387 partner limits assumed): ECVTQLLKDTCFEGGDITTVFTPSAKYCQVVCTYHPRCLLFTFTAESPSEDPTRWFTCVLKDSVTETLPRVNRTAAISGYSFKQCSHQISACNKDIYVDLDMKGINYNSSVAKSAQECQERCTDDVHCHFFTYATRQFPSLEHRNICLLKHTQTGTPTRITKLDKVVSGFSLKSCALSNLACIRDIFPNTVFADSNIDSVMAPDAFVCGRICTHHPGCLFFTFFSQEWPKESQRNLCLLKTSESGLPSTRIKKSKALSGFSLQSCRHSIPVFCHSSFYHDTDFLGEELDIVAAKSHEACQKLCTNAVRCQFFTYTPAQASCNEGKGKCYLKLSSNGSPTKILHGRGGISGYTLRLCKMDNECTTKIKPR

The assay has as its target T1, purified human Factor XIa (Homo sapiens, UniProt P03951).
T1 construct: Determinations were made using purified human Factor XIa; purchased Sekisui Diagnostics
In words: Factor XIa Assay (hydrolysis of fluorogenic substrate Z-Gly-Pro-Arg-AFC). It counts as biochemical. The note with it: purified human Factor XIa 40 pM; Z-Gly-Pro-Arg-AFC 100 μM; 50 mM HEPES pH 7.4; read-out: Factor XIa Inhibition (IC50 (nM)). As to the method: The effectiveness of compounds of the present invention as inhibitors of Coagulation Factor XIa can be determined using a relevant purified serine protease, and an appropriate synthetic substrate. The rate of hydrolysis of the chromogenic or fluorogenic substrate by the relevant serine protease was measured both in the absence and presence of compounds of the present invention. Assays were conducted at room temperature or at 37° C. […] A decrease in the rate of fluorescence change in the presence of inhibitor is indicative of enzyme inhibition. Such methods are known to one skilled in the art. […]
Factor XIa determinations were made in 50 mM HEPES buffer at pH 7.4 containing 150 mM NaCl, 5 mM CaCl2, and 0.1% PEG 8000 (polyethylene glycol; JT Baker or Fisher Scientific). Determinations were made using purified human Factor XIa at a final concentration of 40 pM (Sekisui Diagnostics) and the synthetic substrate, Z-Gly-Pro-Arg-AFC, TFA salt (Sigma #C0980) at a concentration of 100 μM.
Times required to achieve equilibration between enzyme and inhibitor were determined in control experiments. Initial velocities of product formation in the absence (Vo) or presence of inhibitor (Vi) were measured. Assuming competitive inhibition, and that unity is negligible compared Km/[S], [I]/e, and [I]/e (where [S], [I], and e respectively represent the total concentrations, of substrate, inhibitor and enzyme), the equilibrium constant (Ki) for dissociation of the inhibitor from the enzyme can be obtained from the dependence of Vo/Vi on [I] shown in the following equation.
As a reminder, the IC50 is the point on the concentration scale where inhibition reaches its midpoint. On to `O=C(O)c1ccc(NC(=O)[C@@H]2[C@H](c3ccccc3)C[C@H](OC3CCNCC3)CN2C(=O)/C=C/c2cc(Cl)ccc2-n2cnnn2)cc1` (racemic) [Example 8, 4-(1-((E)-3-(5-Chloro-2-(1H-tetrazol-1-yl)phenyl)acryloyl)-3-phenyl-5-(piperidin-4-yloxy)piperidine-2-carboxamido)benzoic acid], for which the IC50 amounted to 4.7 nM.

As to `O=C(O)c1ccc(NC(=O)[C@@H]2[C@H](C3CCCCC3)C[C@H](OC3CCNCC3)CN2C(=O)/C=C/c2cc(Cl)ccc2-n2cnnn2)cc1` (racemic) [Example 11], the half-inhibitory concentration (IC50) was determined as 6.1 nM. Next, `O=C(O)c1ccc(NC(=O)[C@@H]2[C@H](OC3CCNCC3)C[C@H](c3ccccc3)CN2C(=O)/C=C/c2cc(Cl)ccc2-n2cnnn2)cc1` (racemic) [Example 12, 4-(1-((E)-3-(5-chloro-2-(1H-tetrazol-1-yl)phenyl)acryloyl)-5-phenyl-3-(piperidin-4-yloxy)piperidine-2-carboxamido)benzoic acid]: 155 nM.

As to `O=C(O)c1ccc(NC(=O)[C@@H]2[C@H](c3ccccc3)C[C@H](OC3CCNCC3)CN2C(=O)/C=C/c2cc(Cl)ccc2-n2cnnn2)cc1` (single isomer, unassigned) [Example 9], the IC50 turned out to be 2.5 nM.

With `COC(=O)Nc1ccc(-c2c[nH]c(C3C(c4ccc(F)cc4)CC(N4CCC(N)CC4)CN3C(=O)/C=C/c3cc(Cl)ccc3-n3cnnn3)n2)cc1` (single isomer, unassigned) [Example 13, Methyl (4-{2-[4-amino-1′-{(2E)-3-[5-chloro-2-(1H-tetrazol-1-yl)phenyl]prop-2-enoyl}-5′-(4-fluorophenyl)-1,3′-bipiperidin-6′-yl]-1H-imidazol-4-yl}phenyl)-carbamate], the IC50 worked out at 1.7 nM.

Consider `O=C(O)c1ccc(NC(=O)[C@@H]2[C@H](c3ccccc3)C[C@H](C3CCNCC3)CN2C(=O)/C=C/c2cc(Cl)ccc2-n2cnnn2)cc1` (single isomer, unassigned) [Example 23, trifluoroacetic acid salt], for which the IC50 turned out to be 640 nM. Regarding `COC(=O)Nc1ccc(-c2c[nH]c([C@@H]3[C@H](C4CC4)C[C@H](C4CCNCC4)CN3C(=O)/C=C/c3cc(Cl)ccc3-n3cnnn3)n2)cc1` (single isomer, unassigned) [Example 26], the half-maximal inhibitory concentration (IC50) was found to be 656 nM. Turning to `COC(=O)Nc1ccc(-c2c[nH]c([C@@H]3[C@H](C4CC4)C[C@H](C4CCN(S(C)(=O)=O)CC4)CN3C(=O)/C=C/c3cc(Cl)ccc3-n3cnnn3)n2)cc1` (single isomer, unassigned) [Example 28], the IC50 was found to be 652 nM.

For the molecule `O=C(O)c1ccc(NC(=O)C2C(c3ccccc3)CC(N3CCNCC3)CN2C(=O)/C=C/c2cc(Cl)ccc2-n2cnnn2)cc1` (stereo not drawn) [Example 2, 4-{[(1-{(2E)-3-[5-chloro-2-(1H-tetrazol-1-yl)phenyl]prop-2-enoyl}-3-phenyl-5-piperazin-1-ylpiperidin-2-yl)carbonyl]amino}benzoic acid], the 50% inhibitory concentration (IC50) turned out to be 11.4 nM. Next, `CC(C)C1CC(N2CCC(N)CC2)CN(C(=O)/C=C/c2cc(Cl)ccc2-n2cnnn2)C1C(=O)Nc1ccc(C(=O)O)cc1` (stereo not drawn) [Example 3, 4-({[4-amino-1′-{(2E)-3-[5-chloro-2-(1H-tetrazol-1-yl)phenyl]prop-2-enoyl}-5′-(1-methylethyl)-1,3′-bipiperidin-6′-yl]carbonyl}amino)benzoic acid]: 27.2 nM; `NC1CCN(C2CC(C3CC3)C(C(=O)Nc3ccc(C(=O)O)cc3)N(C(=O)/C=C/c3cc(Cl)ccc3-n3cnnn3)C2)CC1` (stereo not drawn) [Example 4, 4-{[(4-amino-1′-{(2E)-3-[5-chloro-2-(1H-tetrazol-1-yl)phenyl]prop-2-enoyl}-5′-cyclopropyl-1,3′-bipiperidin-6′-yl)carbonyl]amino}benzoic acid]: 2.2 nM; `CC1CC(N2CCC(N)CC2)CN(C(=O)/C=C/c2cc(Cl)ccc2-n2cnnn2)C1C(=O)Nc1ccc(C(=O)O)cc1` (stereo not drawn) [Example 5, 4-{[(4-amino-1′-{(2E)-3-[5-chloro-2-(1H-tetrazol-1-yl)phenyl]prop-2-enoyl}-5′-methyl-1,3′-bipiperidin-6′-yl)carbonyl]amino}benzoic acid]: 105 nM.

The values are drawn from patent publication US10239863B2, “Factor XIa inhibitors” (Merck Sharp & Dohme Corp., priority 2013, dated 2019).
